Data as given in patent publication US20210269434A1, “TRICYCLIC COMPOUNDS AS INHIBITORS OF KRAS” (Incyte Corporation, priority 2020, published 2021).
pIC50: −log10 of the molar value.

How the values were obtained:
[1] = system: MIA PaCa-2 (KRAS G12C) cells; assay: Cellular pERK HTRF assay (KRAS_G12C pERK); assay type: cell-based, human; settings: Homo sapiens, MIA PaCa-2, 4 hours incubation, read-out: G12C_pERK
Protocol: Example C: Cellular pERK HTRF Assay
MIA PaCa-2 (KRAS G12C; ATCC® CRL-1420), A427 (KRAS G12D; ATCC® HTB53), HPAF-II (KRAS G12D; ATCC® CRL-1997) and NCI-H838 (KRAS WT; ATCC® CRL-5844) cells are purchased from ATCC and maintained in RPMI 1640 media supplemented with 10% FBS (Gibco/Life Technologies). The cells are plated at 5000 cells per well (8 uL) into Greiner 384-well low volume, flat-bottom, tissue culture treated white plates and incubated overnight at 37° C., 5% CO2. The next morning, test compound stock solutions are diluted in media at 3× the final concentration, and 4 uL are added to the cells. The plate is mixed by gentle rotation for 30 seconds (250 rpm) at room temperature. The cells are incubated with the KRAS G12C and G12D compounds for 4 hours or 2 hours respectively at 37° C., 5% CO2.
4 uL of 4× lysis buffer with blocking reagent (1:25) (Cisbio) are added to each well and plates are rotated gently (300 rpm) for 30 minutes at room temperature. 4 uL per well of Cisbio anti Phospho-ERK 1/2 d2 is mixed with anti Phospho-ERK 1/2 Cryptate (1:1) are added to each well, mixed by rotation and incubated overnight in the dark at room temperature. Plates are read on the Pherastar plate reader at 665 nm and 620 nm wavelengths. IC50 determination is performed by fitting the curve of inhibitor percent inhibition versus the log of the inhibitor concentration using the GraphPad Prism 7 software.

KRAS G12C = KRAS G12C (Homo sapiens, UniProt P01116, G12C); assay: GDP-GTP exchange assay (KRAS_G12C exchange); assay type: biochemical; settings: bodipy-GDP loaded KRAS G12C 2.5 nM, SOS1 150 nM, GppNHp; 2 hours pre-incubation, 2 hours reaction; read-out: G12C_exchange
Protocol: Example A. GDP-GTP Exchange Assay
The inhibitor potency of the exemplified compounds was determined in a fluorescence based guanine nucleotide exchange assay, which measures the exchange of bodipy-GDP (fluorescently labeled GDP) for GppNHp (Non-hydrolyzable GTP analog) to generate the active state of KRAS in the presence of SOS1 (guanine nucleotide exchange factor). Inhibitors were serially diluted in DMSO and a volume of 0.1 μL was transferred to the wells of a black low volume 384-well plate. 5 μL/well volume of bodipy-loaded KRAS G12C diluted to 5 nM in assay buffer (25 mM Hepes pH 7.5, 50 mM NaCl, 10 mM MgCl2 and 0.01% Brij-35) was added to the plate and pre-incubated with inhibitor for 2 hours at ambient temperature. Appropriate controls (enzyme with no inhibitor or with a G12C inhibitor (AMG-510)) were included on the plate. The exchange was initiated by the addition of a 5 μL/well volume containing 1 mM GppNHp and 300 nM SOS1 in assay buffer. The 10 μL/well reaction concentration of the bodipy-loaded KRAS G12C, GppNHp, and SOS1 were 2.5 nM, 500 uM, and 150 nM, respectively. The reaction plates were incubated at ambient temperature for 2 hours, a time estimated for complete GDP-GTP exchange in the absence of inhibitor. For the KRAS G12D and G12V mutants, similar guanine nucleotide exchange assays were used with 2.5 nM as final concentration for the bodipy loaded KRAS proteins and with 4 hours and 3 hours incubation after adding GppNHp-SOS1 mixture for G12D and G12V respectively. A cyclic peptide described to selectively bind G12D mutant (Sakamoto et al., BBRC 484.3 (2017), 605-611) or internal compounds with confirmed binding were used as positive controls in the assay plates. Fluorescence intensities were measured on a PheraStar plate reader instrument (BMG Labtech) with excitation at 485 nm and emission at 520 nm.
Either GraphPad prism or XLfit was used to analyze the data. The IC50 values were derived by fitting the data to a four parameter logistic equation producing a sigmoidal dose-response curve with a variable Hill coefficient. Prism equation: Y=Bottom+(Top−Bottom)/(1+10^((Log lC50−X)*Hill slope)); XLfit equation: Y=(A+((B−A)/(1+((X/C)^D)))) where X is the logarithm of inhibitor concentration and Y is the response.

Chain of KRAS G12C (P01116 1-188 isoform P01116-2 G12C): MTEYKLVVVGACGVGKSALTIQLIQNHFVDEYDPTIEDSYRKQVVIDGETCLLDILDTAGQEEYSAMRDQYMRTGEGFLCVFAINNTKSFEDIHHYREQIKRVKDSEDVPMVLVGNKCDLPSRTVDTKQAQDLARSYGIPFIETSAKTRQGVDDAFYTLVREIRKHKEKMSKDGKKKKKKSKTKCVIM

Row | Structure (SMILES) | pIC50 [1] | pIC50 (KRAS G12C)
1 | C=CC(=O)N1CCCC(n2cnc3c(OC[C@@H]4CCCN4C)nc4c(F)c(-c5cc(O)cc6ccccc56)c(Cl)cc4c32)C1 (mixture of isomers) [Example 5, 1-(3-(8-chloro-6-fluoro-7-(3-hydroxynaphthalen-1-yl)-4-(((S)-1-methylpyrrolidin-2-yl)methoxy)-1H-imidazo[4,5-c]quinolin-1-yl)piperidin-1-yl)prop-2-en-1-one] | 5.30 to 6.00 | ≥ 7.00
2 | C=CC(=O)N1CCC(n2cnc3c(OC[C@@H]4CCCN4C)nc4c(F)c(-c5cc(O)cc6ccccc56)c(Cl)cc4c32)C1 (mixture of isomers) [Example 7, 1-(3-(8-chloro-6-fluoro-7-(3-hydroxynaphthalen-1-yl)-4-(((S)-1-methyl-pyrrolidin-2-yl)methoxy)-1H-imidazo[4,5-c]quinolin-1-yl)pyrrolidin-1-yl)prop-2-en-1-one] | ≥ 7.00 | ≥ 7.00
3 | C=CC(=O)N1CCC(n2cnc3c(OC[C@@H]4CCCN4C)nc4c(F)c(-c5cccc6ccccc56)c(Cl)cc4c32)CC1CC#N (mixture of isomers) [Example 38, 2-(1-acryloyl-4-(8-chloro-6-fluoro-4-(((S)-1-methylpyrrolidin-2-yl)methoxy)-7-(naphthalen-1-yl)-1H-imidazo[4,5-c]quinolin-1-yl)piperidin-2-yl)acetonitrile] | ≥ 7.00 | ≥ 7.00
4 | C=CC(=O)N1CCC(n2cnc3c(OC[C@@H]4CCCN4C)nc4c(F)c(-c5cccc(Cl)c5C)c(Cl)cc4c32)CC1CC#N (mixture of isomers) [Example 41, 2-(1-acryloyl-4-(8-chloro-7-(3-chloro-2-methylphenyl)-6-fluoro-4-(((S)-1-methylpyrrolidin-2-yl)methoxy)-1H-imidazo[4,5-c]quinolin-1-yl)piperidin-2-yl)acetonitrile] | ≥ 7.00 | ≥ 7.00
5 | C=CC(=O)N1CCC(n2cnc3c(OC[C@@H]4CCCN4C)nc4c(F)c(-c5cccc(F)c5C)c(Cl)cc4c32)CC1CC#N (mixture of isomers) [Example 42, 2-(1-acryloyl-4-(8-chloro-6-fluoro-7-(3-fluoro-2-methylphenyl)-4-(((S)-1-methylpyrrolidin-2-yl)methoxy)-1H-imidazo[4,5-c]quinolin-1-yl)piperidin-2-yl)acetonitrile] | ≥ 7.00 | ≥ 7.00
6 | C=CC(=O)N1CCC(n2cnc3c(OC[C@@H]4CCCN4C)nc4c(F)c(-c5cccc(C)c5C)c(Cl)cc4c32)CC1CC#N (mixture of isomers) [Example 43, 2-(1-acryloyl-4-(8-chloro-7-(2,3-dimethylphenyl)-6-fluoro-4-(((S)-1-methyl-pyrrolidin-2-yl)methoxy)-1H-imidazo[4,5-c]quinolin-1-yl)piperidin-2-yl)acetonitrile] | ≥ 7.00 | ≥ 7.00
7 | C=CC(=O)N1CCC(n2cnc3c(OC[C@@H]4CCCN4C)nc4c(F)c(-c5cccc6c5CCC6)c(Cl)cc4c32)CC1CC#N (mixture of isomers) [Example 44, 2-(1-acryloyl-4-(8-chloro-7-(2,3-dihydro-1H-inden-4-yl)-6-fluoro-4-(((S)-1-methylpyrrolidin-2-yl)methoxy)-1H-imidazo[4,5-c]quinolin-1-yl)piperidin-2-yl)acetonitrile] | ≥ 7.00 | ≥ 7.00
8 | C=CC(=O)N1C[C@H](C)[C@@H](n2cnc3c(N4CC(N(C)C)C4)nc4c(F)c(-c5cc(O)cc6ccccc56)c(Cl)cc4c32)C1 (racemic) [Example 31a, 1-((trans)-3-(8-chloro-4-(3-(dimethylamino)azetidin-1-yl)-6-fluoro-7-(3-hydroxynaphthalen-1-yl)-1H-imidazo[4,5-c]quinolin-1-yl)-4-methylpyrrolidin-1-yl)prop-2-en-1-one] | ≥ 7.00 | ≥ 7.00
9 | C=CC(=O)N1CCC(n2cnc3c(=O)n(C)c4c(F)c(-c5cc(O)cc6ccccc56)c(Cl)cc4c32)C1 (racemic) [Example 33, 1-(1-acryloylpyrrolidin-3-yl)-8-chloro-6-fluoro-7-(3-hydroxynaphthalen-1-yl)-5-methyl-1,5-dihydro-4H-imidazo[4,5-c]quinolin-4-one] | 5.30 to 6.00 | 6.00 to 7.00
10 | C=CC(=O)N1C[C@H](OC)[C@@H](n2cnc3c(N4CC(N(C)C)C4)nc4c(F)c(-c5cc(O)cc6ccccc56)c(Cl)cc4c32)C1 (relative stereo) [Example 30b, 1-((trans)-3-(8-chloro-4-(3-(dimethylamino)azetidin-1-yl)-6-fluoro-7-(3-hydroxynaphthalen-1-yl)-1H-imidazo[4,5-c]quinolin-1-yl)-4-methoxypyrrolidin-1-yl)prop-2-en-1-one] | ≥ 7.00 | ≥ 7.00
11 | C=CC(=O)N1CCC(n2cnc3c(OC[C@@H]4CCCN4C)nc4c(F)c(-c5cc(O)cc6ccccc56)c(Cl)cc4c32)CC1 (single isomer, unassigned) [Example 1a] | 6.00 to 7.00 | ≥ 7.00
12 | C=CC(=O)N1CCC(n2cnc3c(OC[C@@H]4CCCN4C)nc4c(F)c(-c5c(O)cccc5F)c(Cl)cc4c32)CC1 (single isomer, unassigned) [Example 2a] | 5.30 to 6.00 | 6.00 to 7.00
13 | C=CC(=O)N1CCC(n2cnc3c(OC[C@@H]4CCCN4C)nc4c(F)c(-c5cccc(O)c5F)c(Cl)cc4c32)CC1 (single isomer, unassigned) [Example 3a] | – | 5.30 to 6.00
14 | C=CC(=O)N1CCC(n2cnc3c(OC[C@@H]4CCCN4C)nc4c(F)c(-c5c(C)ccc6[nH]ncc56)c(Cl)cc4c32)CC1 (single isomer, unassigned) [Example 4a] | 6.00 to 7.00 | ≥ 7.00
15 | C=CC(=O)N1CC(n2cnc3c(OC[C@@H]4CCCN4C)nc4c(F)c(-c5cc(O)cc6ccccc56)c(Cl)cc4c32)C1 (single isomer, unassigned) [Example 6a] | 6.00 to 7.00 | ≥ 7.00
16 | C=CC(=O)N1CCC(n2nnc3c(OC[C@@H]4CCCN4C)nc4c(F)c(-c5cc(O)cc6ccccc56)c(Cl)cc4c32)CC1 (single isomer, unassigned) [Example 14a] | ≥ 7.00 | ≥ 7.00
17 | C=CC(=O)N1C[C@H](C)[C@@H](n2cnc3c(OC[C@@H]4CCCN4C)nc4c(F)c(-c5cc(O)cc6ccccc56)c(Cl)cc4c32)C1 (single isomer, unassigned) [Example 29b] | ≥ 7.00 | ≥ 7.00
18 | C=CC(=O)N1CCC(n2cnc3c(OC[C@@H]4CCCN4C)nc4c(F)c(-c5cc(O)cc6ccccc56)c(Cl)cc4c32)CC1CC#N (single isomer, unassigned) [Example 36a] | ≥ 7.00 | ≥ 7.00
19 | C=CC(=O)N1CCC(n2cnc3c(OCc4ccnn4C)nc4c(F)c(-c5cc(O)cc6ccccc56)c(Cl)cc4c32)CC1 [Example 8, 1-(4-(8-chloro-6-fluoro-7-(3-hydroxynaphthalen-1-yl)-4-((1-methyl-1H-pyrazol-5-yl)methoxy)-1H-imidazo[4,5-c]quinolin-1-yl)piperidin-1-yl)prop-2-en-1-one] | – | 6.00 to 7.00
20 | C=CC(=O)N1CC(n2c(=O)[nH]c3c(=O)n(-c4ccccc4)c4nc(-c5cc(O)cc6ccccc56)c(F)cc4c32)C1 [Example 28, 1-(1-acryloylazetidin-3-yl)-8-fluoro-7-(3-hydroxynaphthalen-1-yl)-5-phenyl-3,5-dihydro-1H-imidazo[4,5-c][1,8]naphthyridine-2,4-dione] | – | 6.00 to 7.00
